Results on 11 compounds are retold here after article PMC11861015, “Discovery of novel naphthalene-based diarylamides as pan-Raf kinase inhibitors with promising anti-melanoma activity: rational design, synthesis, in vitro and in silico screening” (Archives of Pharmacal Research, 2025).

The target in one assay is Raf kinase enzyme. Also on record: method as in Buchstaller et al. [2011]. The settings on record: ref Buchstaller et al. [2011]; read-out: IC50 against the Raf kinase enzyme; cited from earlier work.
The target in a further assay is c-Raf (Homo sapiens, UniProt P04049). As to the kind of experiment: In vitro biochemical kinase assay (Kinase HotSpot, Reaction Biology), one-point and 10-dose. The settings on record: ATP 10 μM; for inhibition at 10 µM: 10 µM compound, duplicate, read-out: In vitro protein kinase inhibition values (%) c-Raf.
The test system of assay [1] is melanoma cell line A375. Description: Apoptosis analysis (PE-Annexin V / DAPI). The settings on record: dosage close to IC50, dot plot.
Description: PE-conjugated Annexin V maintains its strong binding to phosphatidylserine (PS), serving as a sensitive marker for flow cytometric assessment of apoptotic cells. The staining with PE Annexin V precedes the loss of membrane integrity observed in the later phases of cell death, whether induced by apoptotic or necrotic processes. Therefore, PE Annexin V staining is commonly employed alongside a vital dye like propidium iodide (PI) or DAPI. This combination allows researchers to distinguish early apoptotic cells (DAPI negative, PE Annexin V positive) from viable cells with intact membranes, which exclude DAPI. In contrast, the membranes of dead or damaged cells become permeable to DAPI. […] The sequential movement of cells through these stages serves as an indicative pattern of apoptosis.
For a more appropriate investigation of cell death, the compound-treated cells and control A375 cells were stained with PE-Annexin V and DAPI. […] A kind of controlled cell death known as apoptosis may be identified with the use of Annexin V and the DAPI reagent. These two fluorophores are used in the dot plot and image data to identify early and late apoptotic cells.
A further assay deals with T1, B-Raf^WT (Homo sapiens, UniProt P15056).
T1 construct: purchased Reaction Biology Co. (Kinase HotSpot service)
As to the kind of experiment: In vitro biochemical kinase assay (Kinase HotSpot, Reaction Biology), one-point and 10-dose. Conditions: ATP 10 μM; for inhibition at 10 µM: 10 µM compound, duplicate, read-out: In vitro protein kinase inhibition values (%) B-Raf^WT.

The target of another assay is T2, ROS/ROS1 (Homo sapiens, UniProt P08922).
T2 construct: purchased Reaction Biology Co. (Kinase HotSpot service)
As to the kind of experiment: Kinase selectivity assay, one-point. Type of assay: biochemical. Conditions: 10 µM compound, duplicate, ATP 10 μM. The procedure:
(§1) The in vitro kinase inhibitory assays (both one-point and ten-point assays) were performed at Reaction Biology Co. (Malvern, PA, USA). Kinase HotSpot service was used for screening the tested derivatives. The experiment protocol is previously described in detail (Elkamhawy et al. [2016]).
(§2) No significant inhibition was observed over the other tested kinases.

For the next assay, the target named is T3, FGFR1 (Homo sapiens, UniProt P11362).
T3 construct: purchased Reaction Biology Co. (Kinase HotSpot service)
Description: Kinase selectivity assay, one-point. Type of assay: biochemical. The settings on record: 10 µM compound, duplicate, ATP 10 μM. The method, then:
as §1, §2

For a further assay, the target named is T4, mTOR/FRAP1 (Homo sapiens, UniProt P42345).
T4 construct: purchased Reaction Biology Co. (Kinase HotSpot service)
Description: Kinase selectivity assay, one-point. Type of assay: biochemical. The settings on record: 10 µM compound, duplicate, ATP 10 μM. The method, then:
as §1, §2

A further assay deals with T5, TRKB (Homo sapiens, UniProt Q16620).
T5 construct: purchased Reaction Biology Co. (Kinase HotSpot service)
Description: Kinase selectivity assay, one-point. Type of assay: biochemical. The settings on record: 10 µM compound, duplicate, ATP 10 μM. The procedure:
as §1, §2

In a further assay the target is T6, ALK (Homo sapiens, UniProt Q9UM73).
T6 construct: purchased Reaction Biology Co. (Kinase HotSpot service)
As to the kind of experiment: Kinase selectivity assay, one-point. Type of assay: biochemical. Conditions: 10 µM compound, duplicate, ATP 10 μM. The procedure:
as §1, §2

The target in the next assay is T7, ERK2/MAPK1 (Homo sapiens, UniProt P28482).
T7 construct: purchased Reaction Biology Co. (Kinase HotSpot service)
As to the kind of experiment: Kinase selectivity assay, one-point. Type of assay: biochemical. Conditions: 10 µM compound, duplicate, ATP 10 μM. The procedure: as §1, §2

Assay [2] relates to melanoma cell line A375. As to the kind of experiment: Cell cycle analysis. Conditions: A375 cells treated at IC50.
In another assay the target is T8, B-Raf^V600E (Homo sapiens, UniProt P15056, V600E).
T8 construct: purchased Reaction Biology Co. (Kinase HotSpot service)
Description: In vitro biochemical kinase assay (Kinase HotSpot, Reaction Biology), one-point and 10-dose. The settings on record: ATP 10 μM; for inhibition at 10 µM: 10 µM compound, duplicate, read-out: In vitro protein kinase inhibition values (%) B-Raf^V600E.

For assay [3], the system named is human melanoma cell line (A375). As to the kind of experiment: In vitro cytotoxic activity (MTT assay). Type of assay: cell-based. The settings on record: for IC50: Homo sapiens, A-375, A375 cells, read-out: IC50 values (μM) against A375. The procedure:
Melanoma skin cancer cell line (A375) of American Type Culture Collection (ATCC) was obtained from Korean Cell Line Bank (KCLB). The A375 cells were cultured in Dulbecco’s modified eagle’s medium (DMEM) (GenDepot) supplemented with 1% penicillin–streptomycin and 10% fetal bovine serum (FBS). The cells were maintained at 37 °C in a 5% CO2 with a 95% humid atmosphere. MTT assay, analysis of the cell cycle distribution, apoptosis analysis, and statistical analysis were carried out following known standard protocols adopted by our team earlier (Son et al. [2023]). […]
On the technique in general: Tetrazolium assays rely on reduction of a dye to a coloured formazan, in cell work by metabolically active cells.

Assay [4] relates to Raf kinase enzymes (B-Raf^WT, B-Raf^V600E, and c-Raf). As to the kind of experiment: One-point kinase assay, summary across Raf kinases. Type of assay: biochemical. The settings on record: 10 μM compound, ATP 10 μM, span over B-Raf^WT. The procedure: as §1
To evaluate the new structural design of our compounds (9a–i), the biochemical activity was evaluated against Raf kinase enzymes (B-Raf^WT, B-Raf^V600E, and c-Raf) in one-point dose (10 μM) at duplicate mode using ATP concentration 10 μM. The results are presented in Table 2 and expressed in % inhibition.

[5] abbreviates: 10-dose, threefold serial dilution from 20 μM.

SMILES strings stand for the structures.

T8 sequence (P15056 whole entry V600E): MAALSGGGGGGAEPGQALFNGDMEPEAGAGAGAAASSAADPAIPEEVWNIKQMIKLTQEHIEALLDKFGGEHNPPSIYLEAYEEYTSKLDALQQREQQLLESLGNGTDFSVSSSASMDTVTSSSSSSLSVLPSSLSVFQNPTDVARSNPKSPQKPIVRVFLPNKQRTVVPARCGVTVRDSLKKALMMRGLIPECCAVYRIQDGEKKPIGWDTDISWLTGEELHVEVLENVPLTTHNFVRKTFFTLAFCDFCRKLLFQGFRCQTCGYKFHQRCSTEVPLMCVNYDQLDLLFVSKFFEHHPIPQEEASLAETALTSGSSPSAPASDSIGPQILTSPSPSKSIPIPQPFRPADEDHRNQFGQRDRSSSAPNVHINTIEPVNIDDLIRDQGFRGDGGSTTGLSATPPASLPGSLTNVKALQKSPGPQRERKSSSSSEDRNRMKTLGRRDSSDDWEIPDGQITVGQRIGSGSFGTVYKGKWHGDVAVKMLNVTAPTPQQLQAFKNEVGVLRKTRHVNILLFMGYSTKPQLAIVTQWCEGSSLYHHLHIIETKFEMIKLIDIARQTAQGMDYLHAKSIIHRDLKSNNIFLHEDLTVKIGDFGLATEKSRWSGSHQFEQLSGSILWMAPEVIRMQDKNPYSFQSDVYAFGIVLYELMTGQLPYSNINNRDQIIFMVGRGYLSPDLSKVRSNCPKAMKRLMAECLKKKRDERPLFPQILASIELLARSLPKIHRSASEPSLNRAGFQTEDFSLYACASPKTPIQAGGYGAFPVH
T1 sequence (P15056 whole entry): as the sequence (P15056 whole entry V600E) above, with E600V counted along it
c-Raf, sequence (P04049 whole entry): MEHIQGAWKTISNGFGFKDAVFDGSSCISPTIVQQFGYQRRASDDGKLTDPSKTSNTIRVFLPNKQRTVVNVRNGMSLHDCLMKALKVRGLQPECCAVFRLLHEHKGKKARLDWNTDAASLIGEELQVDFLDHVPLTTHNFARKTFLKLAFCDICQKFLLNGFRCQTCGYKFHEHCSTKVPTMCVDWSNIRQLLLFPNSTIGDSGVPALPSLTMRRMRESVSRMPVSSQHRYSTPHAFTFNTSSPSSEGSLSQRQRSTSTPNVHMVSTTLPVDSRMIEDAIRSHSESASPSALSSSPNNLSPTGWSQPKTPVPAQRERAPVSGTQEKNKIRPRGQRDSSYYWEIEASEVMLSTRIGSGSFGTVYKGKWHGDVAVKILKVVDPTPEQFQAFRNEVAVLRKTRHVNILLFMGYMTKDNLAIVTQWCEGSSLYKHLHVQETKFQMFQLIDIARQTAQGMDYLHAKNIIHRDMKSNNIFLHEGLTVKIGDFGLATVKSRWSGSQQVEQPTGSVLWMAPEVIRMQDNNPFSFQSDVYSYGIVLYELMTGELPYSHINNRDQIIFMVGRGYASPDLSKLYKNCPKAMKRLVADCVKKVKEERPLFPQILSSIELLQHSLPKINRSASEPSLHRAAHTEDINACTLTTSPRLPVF
T5 sequence (Q16620 32-822): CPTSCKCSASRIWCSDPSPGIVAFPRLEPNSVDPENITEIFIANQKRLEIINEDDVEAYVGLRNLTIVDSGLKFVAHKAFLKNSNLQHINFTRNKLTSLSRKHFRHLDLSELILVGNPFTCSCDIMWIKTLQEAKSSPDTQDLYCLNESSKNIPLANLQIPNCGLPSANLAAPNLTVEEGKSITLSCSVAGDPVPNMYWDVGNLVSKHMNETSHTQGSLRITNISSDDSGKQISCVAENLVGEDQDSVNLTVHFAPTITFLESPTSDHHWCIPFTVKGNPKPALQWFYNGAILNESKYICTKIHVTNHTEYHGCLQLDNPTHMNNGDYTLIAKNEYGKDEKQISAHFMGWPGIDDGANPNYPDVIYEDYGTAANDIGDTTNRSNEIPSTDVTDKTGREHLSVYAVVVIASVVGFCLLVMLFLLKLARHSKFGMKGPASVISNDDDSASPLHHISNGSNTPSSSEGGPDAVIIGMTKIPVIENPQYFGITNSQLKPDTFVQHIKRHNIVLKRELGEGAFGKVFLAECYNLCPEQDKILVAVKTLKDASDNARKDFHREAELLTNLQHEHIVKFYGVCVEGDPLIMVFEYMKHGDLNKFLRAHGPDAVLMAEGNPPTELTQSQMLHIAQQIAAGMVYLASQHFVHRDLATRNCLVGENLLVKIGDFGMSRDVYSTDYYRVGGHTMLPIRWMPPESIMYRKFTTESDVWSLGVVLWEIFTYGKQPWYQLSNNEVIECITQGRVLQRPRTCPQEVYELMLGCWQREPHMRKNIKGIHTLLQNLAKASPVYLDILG
T6 sequence (Q9UM73 19-1620): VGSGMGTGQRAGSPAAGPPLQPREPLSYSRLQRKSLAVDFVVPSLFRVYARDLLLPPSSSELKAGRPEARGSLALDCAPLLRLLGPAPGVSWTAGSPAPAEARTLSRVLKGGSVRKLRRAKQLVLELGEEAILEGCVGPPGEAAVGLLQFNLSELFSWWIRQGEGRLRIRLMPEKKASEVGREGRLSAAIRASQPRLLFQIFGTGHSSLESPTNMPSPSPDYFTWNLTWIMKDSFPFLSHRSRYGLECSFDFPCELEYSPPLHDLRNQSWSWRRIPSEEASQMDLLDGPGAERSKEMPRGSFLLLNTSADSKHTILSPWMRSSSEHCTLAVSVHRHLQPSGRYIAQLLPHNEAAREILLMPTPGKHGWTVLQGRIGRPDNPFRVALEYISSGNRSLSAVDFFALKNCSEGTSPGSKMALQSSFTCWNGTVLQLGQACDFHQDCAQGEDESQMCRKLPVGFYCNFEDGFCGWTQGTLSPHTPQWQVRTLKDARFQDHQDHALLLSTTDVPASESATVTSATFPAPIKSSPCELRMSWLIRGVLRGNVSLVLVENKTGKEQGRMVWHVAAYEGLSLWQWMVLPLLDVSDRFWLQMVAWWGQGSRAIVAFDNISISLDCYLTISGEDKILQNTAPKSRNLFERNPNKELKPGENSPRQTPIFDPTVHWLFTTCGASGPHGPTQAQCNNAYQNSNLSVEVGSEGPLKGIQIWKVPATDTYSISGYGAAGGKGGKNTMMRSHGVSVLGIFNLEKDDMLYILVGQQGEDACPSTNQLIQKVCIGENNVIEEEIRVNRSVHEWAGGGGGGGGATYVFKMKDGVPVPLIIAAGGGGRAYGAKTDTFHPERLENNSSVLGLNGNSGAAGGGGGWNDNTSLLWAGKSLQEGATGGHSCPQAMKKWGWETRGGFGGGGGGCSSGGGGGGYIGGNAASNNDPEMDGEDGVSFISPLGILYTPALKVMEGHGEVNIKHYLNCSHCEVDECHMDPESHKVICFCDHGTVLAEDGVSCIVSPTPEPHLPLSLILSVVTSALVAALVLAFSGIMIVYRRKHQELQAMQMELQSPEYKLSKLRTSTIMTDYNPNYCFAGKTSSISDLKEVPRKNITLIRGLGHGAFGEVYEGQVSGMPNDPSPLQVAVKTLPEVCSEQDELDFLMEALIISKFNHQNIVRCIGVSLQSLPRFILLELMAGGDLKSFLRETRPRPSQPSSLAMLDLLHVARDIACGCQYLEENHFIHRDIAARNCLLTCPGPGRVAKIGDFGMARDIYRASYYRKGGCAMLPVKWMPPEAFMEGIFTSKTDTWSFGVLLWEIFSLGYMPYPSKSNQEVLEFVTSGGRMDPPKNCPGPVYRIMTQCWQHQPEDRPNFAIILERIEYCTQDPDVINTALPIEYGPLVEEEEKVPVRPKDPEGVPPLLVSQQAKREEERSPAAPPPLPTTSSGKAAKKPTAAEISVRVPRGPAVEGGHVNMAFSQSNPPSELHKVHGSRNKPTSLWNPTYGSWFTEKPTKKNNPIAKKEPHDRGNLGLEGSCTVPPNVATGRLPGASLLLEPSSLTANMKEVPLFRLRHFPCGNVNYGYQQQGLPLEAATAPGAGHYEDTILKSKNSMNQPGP
T3 sequence (P11362 22-822): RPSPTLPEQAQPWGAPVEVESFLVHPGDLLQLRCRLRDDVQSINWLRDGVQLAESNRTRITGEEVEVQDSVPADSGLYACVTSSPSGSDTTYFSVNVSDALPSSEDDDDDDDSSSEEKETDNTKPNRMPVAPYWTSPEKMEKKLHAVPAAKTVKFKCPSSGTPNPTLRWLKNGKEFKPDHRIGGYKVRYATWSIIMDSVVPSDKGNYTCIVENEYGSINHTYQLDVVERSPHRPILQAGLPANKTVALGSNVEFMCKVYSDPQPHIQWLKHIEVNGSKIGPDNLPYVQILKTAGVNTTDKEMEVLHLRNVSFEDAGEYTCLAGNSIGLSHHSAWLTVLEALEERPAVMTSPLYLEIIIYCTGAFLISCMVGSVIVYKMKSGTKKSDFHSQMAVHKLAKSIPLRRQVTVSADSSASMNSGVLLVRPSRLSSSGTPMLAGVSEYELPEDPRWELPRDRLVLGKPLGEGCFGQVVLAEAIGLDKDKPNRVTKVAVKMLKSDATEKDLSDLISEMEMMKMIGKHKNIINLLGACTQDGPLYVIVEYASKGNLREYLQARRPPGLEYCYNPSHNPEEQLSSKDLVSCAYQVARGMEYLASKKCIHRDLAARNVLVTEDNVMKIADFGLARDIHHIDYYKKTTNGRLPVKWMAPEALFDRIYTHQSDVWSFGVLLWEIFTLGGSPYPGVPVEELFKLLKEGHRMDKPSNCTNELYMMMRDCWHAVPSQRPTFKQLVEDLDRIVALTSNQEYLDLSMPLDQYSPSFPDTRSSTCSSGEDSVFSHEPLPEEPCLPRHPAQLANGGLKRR
T7 sequence (P28482 whole entry): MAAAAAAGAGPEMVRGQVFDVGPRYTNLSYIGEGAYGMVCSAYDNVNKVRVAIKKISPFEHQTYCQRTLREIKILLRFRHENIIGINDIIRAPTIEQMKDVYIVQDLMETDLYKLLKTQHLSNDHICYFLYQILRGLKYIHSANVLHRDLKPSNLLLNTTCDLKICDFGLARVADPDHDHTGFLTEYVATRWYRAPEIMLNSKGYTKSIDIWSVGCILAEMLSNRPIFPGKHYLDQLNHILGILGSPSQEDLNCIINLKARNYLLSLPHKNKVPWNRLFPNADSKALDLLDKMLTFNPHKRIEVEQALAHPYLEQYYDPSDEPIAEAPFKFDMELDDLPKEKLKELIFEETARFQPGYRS

One may read the IC50 as the concentration that inhibits the measured activity by half. `CNC(=O)c1cc2ccc(CCNC(=O)Nc3cc(C(F)(F)F)c(Cl)cc3OC)cc2cn1` [Compound 4]: the IC50 at Raf kinase enzyme was 80 nM.
Usually inhibition stands for the share of the control response that was lost under treatment. In the case of `CNC(=O)c1cc(Oc2ccc3c(C(=O)Nc4cccc(OC(F)F)c4)cccc3c2)ccn1` [Compound 9a, 4-((5-((3-(Difluoromethoxy)phenyl)carbamoyl)naphthalen-2-yl)oxy)-N-methylpicolinamide], the inhibition at 10 µM at c-Raf was determined as 99.8%; at B-Raf^WT, 99.4%; against ROS/ROS1 it was 0%; on FGFR1 it was 86.2%; against mTOR/FRAP1 it was 0%; against TRKB, 17.3%. Moreover, the inhibition at 10 µM at ALK came to 8.23%; against ERK2/MAPK1, 0%; at B-Raf^V600E it was 100%. Also, the IC50 worked out at 2.86 nM against c-Raf (setting [5]), 49.7 nM against B-Raf^WT (setting [5]), 18 nM on B-Raf^V600E (setting [5]) and 0.12 ± 0.013 µM in [3]. In the assay on melanoma cell line A375 [1], this compound returned a N quadrant cells of 6.69%. In addition, the “early apoptosis (E.A) cells” value with melanoma cell line A375 [1] amounted to 9.11%. Further, in the assay with melanoma cell line A375 [1], the “late apoptosis (L.A) cells” value came out at 3.54%. Besides, the “live (L) cells” value in the assay with melanoma cell line A375 [1] was 80.66%. Further, the “G0/G1 phase Percent” value in the assay on melanoma cell line A375 [2] was found to be 18.92%. Further, the “G2/M phase Percent” value in the assay with melanoma cell line A375 [2] came out at 6.45%. For the same compound, the “S phase Percent” value in the assay with melanoma cell line A375 [2] is 71.83%.
Regarding `CNC(=O)c1cc(Oc2ccc3c(C(=O)Nc4ccc(C(C)C)cc4)cccc3c2)ccn1` [Compound 9b, 4-((5-((4-Isopropylphenyl)carbamoyl)naphthalen-2-yl)oxy)-N-methylpicolinamide], the inhibition at 10 µM turned out to be 99.7% at c-Raf, 98.4% on B-Raf^WT and 98.4% at B-Raf^V600E. Besides, the IC50 in assay [3] was determined as 0.17 ± 0.012 µM.
Take `CNC(=O)c1cc(Oc2ccc3c(C(=O)Nc4ccc(I)cc4)cccc3c2)ccn1` [Compound 9c, 4-((5-((4-Iodophenyl)carbamoyl)naphthalen-2-yl)oxy)-N-methylpicolinamide]: the inhibition at 10 µM stood at 98.9% at c-Raf, 92.7% at B-Raf^WT and 88.6% on B-Raf^V600E. Besides, the IC50 in [3] was found to be 0.67 ± 0.017 µM.
Taken in the same sequence, the figures for `CNC(=O)c1cc(Oc2ccc3c(C(=O)Nc4ccc(OC)c(F)c4)cccc3c2)ccn1` [Compound 9d, 4-((5-((3-Fluoro-4-methoxyphenyl)carbamoyl)naphthalen-2-yl)oxy)-N-methylpicolinamide] were 99.6%, 97.4%, 98.2% and 0.54 ± 0.019 µM.
As to `CNC(=O)c1cc(Oc2ccc3c(C(=O)Nc4ccc(N5CCOCC5)c(F)c4)cccc3c2)ccn1` [Compound 9e, 4-((5-((3-Fluoro-4-morpholinophenyl)carbamoyl)naphthalen-2-yl)oxy)-N-methylpicolinamide], the inhibition at 10 µM on c-Raf was found to be 76.3%; on B-Raf^WT, 42.1%; at B-Raf^V600E it was 24.9%. Moreover, the “% inhibition across the tested Raf kinases” value in [4] is on record as 24.93–76.30%. In addition, the “IC50 values (μM) against A375” value in [3] (A375 cells) was “weak cytotoxic activity”. In addition, the IC50 in assay [3] turned out to be 4.46 ± 0.024 µM.
As to `CNC(=O)c1cc(Oc2ccc3c(C(=O)Nc4ccc(F)cc4)cccc3c2)ccn1` [Compound 9f, 4-((5-((4-Fluorophenyl)carbamoyl)naphthalen-2-yl)oxy)-N-methylpicolinamide], the inhibition at 10 µM is 96.5% at c-Raf, 74.7% at B-Raf^WT and 75.8% on B-Raf^V600E. The IC50 in assay [3] was 0.44 ± 0.008 µM.
Regarding `CNC(=O)c1cc(Oc2ccc3c(C(=O)Nc4ccc(C)c(C)c4)cccc3c2)ccn1` [Compound 9g, 4-((5-((3,4-Dimethylphenyl)carbamoyl)naphthalen-2-yl)oxy)-N-methylpicolinamide], the figures for the inhibition at 10 µM on c-Raf, at B-Raf^WT and on B-Raf^V600E were 99.8%, 99.3% and 100%, respectively. The IC50 in assay [3] is 1.42 ± 0.013 µM.
Taken in the same sequence, the figures for `CNC(=O)c1cc(Oc2ccc3c(C(=O)Nc4cc(C)cc(Br)c4)cccc3c2)ccn1` [Compound 9h, 4-((5-((3-Bromo-5-methylphenyl)carbamoyl)naphthalen-2-yl)oxy)-N-methylpicolinamide] were 99.8%, 99.6%, 100% and 1.67 ± 0.032 µM.
Taken in the same sequence, the figures for `CNC(=O)c1cc(Oc2ccc3c(C(=O)Nc4ccc(OC)c(Cl)c4)cccc3c2)ccn1` [Compound 9i, 4-((5-((3-Chloro-4-methoxyphenyl)carbamoyl)naphthalen-2-yl)oxy)-N-methylpicolinamide] were 99.6%, 99.7%, 100% and 1.75 ± 0.021 µM.
Turning to `CNC(=O)c1cc(Oc2ccc(NC(=O)Nc3ccc(Cl)c(C(F)(F)F)c3)cc2)ccn1` [Sorafenib], in the assay with melanoma cell line A375 [1], the N quadrant cells is on record as 12.49%, the “early apoptosis (E.A) cells” value worked out at 4.03%, the “late apoptosis (L.A) cells” value was 4.34% and the “live (L) cells” value is reported as 79.14%. For the same compound, in the assay with melanoma cell line A375 [2], the “G0/G1 phase Percent” value was 34.08%, the “G2/M phase Percent” value is on record as 13.41% and the “S phase Percent” value stood at 49.72%. Moreover, in the assay with melanoma cell line A375 [2] (listed as sorafenib), the “G0/G1 phase Percent” value came to 34.08%, the “G2/M phase Percent” value is given as 13.41% and the “S phase Percent” value is reported as 49.72%. In addition, the IC50 in assay [3] was found to be 0.92 ± 0.018 µM.
